Laboratory results reported in patent US20130230486A1, “COMPOSITIONS AND METHODS TO INDUCE TARGETED APOPTOSIS” (priority 2010, published 2013).

Experiments:
[1] = system: caspase-8; test: Caspase-8 activation (Fas-induced apoptosis) in lung fibroblasts; assay type: cell-based, human; conditions: MRC5
Procedure: To assess the effects of these cytokines on PTPN13 expression, non-diseased normal human lung fibroblasts (NHLF), fibrotic human lung fibroblasts (FHLF) and a fetal lung fibroblast cell line, MRC5 cells, were treated with TNF-α (10/ng/ml), IFN-γ (50 U/ml) or with both cytokines for 6 hours. PTPN13 expression was measured by quantitative PCR (FIG. 2A). The primary lung fibroblasts from normal and fibrotic lung had equivalent levels of PTPN13 expression to the MRC5 lung fibroblast cell line. […] Treatment with TNF-α alone caused a 40% decrease in PTPN13 expression. Combined exposure to TNF-α and IFN-γ decreased PTPN13 mRNA expression by 80%. Protein lysates from normal, fibrotic and MRC5 fibroblasts treated for 36 hours with TNF-α (10/ng/ml), IFN-γ (50 U/ml) or with both cytokines were then analyzed for PTPN13 expression. […]
In one exemplary method, to assess whether PTPN13 expression prevents Fas-induced apoptosis, PTPN13 expression was knocked-down using siRNA. […] Apoptosis was assayed by quantifying activation of caspase-3 and caspase-8 (FIG. 3C).
In death-receptor mediated apoptosis, formation of the DISC (Death-Inducing Signaling Complex) is essential for the initiation of apoptosis. […] The cells were lysed, immunoprecipitated with anti-Fas antibody, and co-immunoprecipitated FADD and caspase-8 were detected by immunoblotting. […]

[2] = system: Fas phospho-Y291; test: Tyrosine phosphorylation of Fas at tyrosine 291 by Western blot in MRC5 lung fibroblasts; assay type: cell-based, human; conditions: pervanadate 150 μM, time dependent
Procedure: PTPN13 has been shown in astrocytoma cells to dephosphorylate Fas at tyrosine 291. Little is known about the regulatory function of tyrosine phosphorylation of Fas. In another exemplary embodiment, to assess the effect of TNF-α and IFN-γ sensitization on the levels of Fas tyrosine phosphorylation, MRC5 lung fibroblasts were treated with TNF-α and IFN-γ for increasing amounts of time. Because TNF-α is known to increase tyrosine phosphorylation of many proteins, such as MAP kinases and AKT, within minutes following stimulation, the kinetics of TNF-α and IFN-γ induced tyrosine phosphorylation of Fas were assessed. MRC5 lung fibroblasts were treated with TNF-α (10 ng/ml) and IFN-γ (50 U/ml) for up to 48 hours. The cells were lysed and analyzed by western blot for phosphorylated Fas, using a phospho-specific antibody for Fas phosho-Y291. TNF-α and IFN-γ increased tyrosine phosphorylation of Fas at tyrosine residue 291 beginning at 18 hours. […] The pervanadate treated MRC5 cells were lysed and analyzed the tyrosine phosphorylation of Fas by western blotting. […] We then detected phosphorylated Fas by Western blot, using a phospho-specific antibody for Fas tyrosine residue 291. […]
FIG. 5: Inhibition of tyrosine phosphatase activity sensitizes lung fibroblasts to Fas-induced apoptosis. […] Caspase-8 activation was measured by a fluorescence based assay. […]

## pervanadate
[1]; 150 μM pervanadate 2 hour pre-treatment, then Fas-activating antibody 250 ng/ml
  caspase-8 activity over unstimulated cells: 6 fold
[1]; 150 μM pervanadate alone
  caspase-8 activity above untreated cells: 2 fold
[2]
  tyrosine phosphorylation of Fas (Y291): increased
